Literature values in patent publication US20080026050A1, “SOLID DOSE FORMULATIONS OF A THROMBIN RECEPTOR ANTAGONIST” (priority 2006, published 2008).

Biological target: T1, thrombin receptor (Homo sapiens, UniProt P25116)
T1 sequence (P25116 22-425): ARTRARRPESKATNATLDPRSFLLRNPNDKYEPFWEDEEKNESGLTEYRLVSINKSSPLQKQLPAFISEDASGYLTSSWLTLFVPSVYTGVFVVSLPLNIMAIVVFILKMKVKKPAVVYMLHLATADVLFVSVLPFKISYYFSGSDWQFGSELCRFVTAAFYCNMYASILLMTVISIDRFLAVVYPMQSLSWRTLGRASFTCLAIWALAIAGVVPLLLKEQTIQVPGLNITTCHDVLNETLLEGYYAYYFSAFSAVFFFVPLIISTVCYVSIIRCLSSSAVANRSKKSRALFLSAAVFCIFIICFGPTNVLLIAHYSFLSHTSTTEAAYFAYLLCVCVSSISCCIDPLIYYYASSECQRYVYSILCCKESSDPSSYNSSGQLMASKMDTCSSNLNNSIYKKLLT
Details: general statement, refers to U.S. application Ser. No. 10/412,982

## CCOC(=O)N[C@@H]1CC[C@@H]2[C@@H](C1)C[C@H]1C(=O)O[C@H](C)[C@H]1[C@H]2/C=C/c1ccc(-c2cccc(F)c2)cn1 [COMPOUND 1]
  selectivity: good
  thrombin receptor antagonist activity (potency): good
